# Source: PubChem BioAssay (NCI)
#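 96-well plates; 48 h exposure; 5 concentrations. Endpoints by linear interpolation between flanking doses. Not reached: highest tested concentration assigned. GI50 = concentration required for 50% inhibition of growth. TGI is the concentration that stops growth completely.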
# Legend:
# Assay in all cases: NCI-60 cell line screen, 48 h
# SNB-19 CNS = test system: SNB-19 CNS
# HT29 colon = test system: HT29 colon
# SF-539 CNS = test system: SF-539 CNS
# HCC-2998 colon = test system: HCC-2998 colon
# RPMI-8226 leukemia = test system: RPMI-8226 leukemia
# EKVX NSCLC = test system: EKVX NSCLC
# OVCAR-3 ovarian = test system: OVCAR-3 ovarian
# RXF 393 renal = test system: RXF 393 renal
# UO-31 renal = test system: UO-31 renal
# OVCAR-4 ovarian = test system: OVCAR-4 ovarian
# SK-MEL-2 melanoma = test system: SK-MEL-2 melanoma
# ACHN renal = test system: ACHN renal
# COLO 205 colon = test system: COLO 205 colon
# IGROV1 ovarian = test system: IGROV1 ovarian
# SK-OV-3 ovarian = test system: SK-OV-3 ovarian
# SK-MEL-5 melanoma = test system: SK-MEL-5 melanoma
# NCI/ADR-RES ovarian = test system: NCI/ADR-RES ovarian
# HS 578T breast = test system: HS 578T breast
# NCI-H460 lung = test system: NCI-H460 lung
# K-562 leukemia = test system: K-562 leukemia
# A549 NSCLC = test system: A549 NSCLC
# NCI-H23 lung = test system: NCI-H23 lung
# TK-10 renal = test system: TK-10 renal
# SF-268 CNS = test system: SF-268 CNS
# SNB-75 CNS = test system: SNB-75 CNS
# SF-295 CNS = test system: SF-295 CNS
# T-47D breast = test system: T-47D breast
# NCI-H226 lung = test system: NCI-H226 lung
# M14 melanoma = test system: M14 melanoma
# PC-3 prostate = test system: PC-3 prostate
# HOP-62 NSCLC = test system: HOP-62 NSCLC
# NCI-H522 lung = test system: NCI-H522 lung
# OVCAR-5 ovarian = test system: OVCAR-5 ovarian
# MCF7 breast = test system: MCF7 breast
# MDA-MB-435 = test system: MDA-MB-435
# 786-0 renal = test system: 786-0 renal
# SK-MEL-28 melanoma = test system: SK-MEL-28 melanoma
# MOLT-4 leukemia = test system: MOLT-4 leukemia
# HCT-15 colon = test system: HCT-15 colon
# SW-620 colon = test system: SW-620 colon
# CCRF-CEM leukemia = test system: CCRF-CEM leukemia
# OVCAR-8 ovarian = test system: OVCAR-8 ovarian
# UACC-257 melanoma = test system: UACC-257 melanoma
# SN12C renal = test system: SN12C renal
# U251 CNS = test system: U251 CNS
# UACC-62 melanoma = test system: UACC-62 melanoma
# KM12 colon = test system: KM12 colon
# BT-549 breast = test system: BT-549 breast
# DU-145 prostate = test system: DU-145 prostate
# CAKI-1 renal = test system: CAKI-1 renal
# A498 renal = test system: A498 renal
# LOX IMVI melanoma = test system: LOX IMVI melanoma
# HOP-92 NSCLC = test system: HOP-92 NSCLC
# MDA-MB-231 breast = test system: MDA-MB-231 breast
# HCT-116 colon = test system: HCT-116 colon
# SR leukemia = test system: SR leukemia
structure (smiles),measurement,setting,value
Nc1n(CC(=O)c2ccccc2)nc2sc(-c3ccccc3)n[n+]12,TGI,SNB-19 CNS,> 100 µM
same,TGI,HT29 colon,51.3 µM
same,TGI,SF-539 CNS,25.3 µM
same,TGI,HCC-2998 colon,25 µM
same,TGI,RPMI-8226 leukemia,58.8 µM
same,TGI,EKVX NSCLC,> 100 µM
same,TGI,OVCAR-3 ovarian,38.9 µM
same,TGI,RXF 393 renal,25.1 µM
same,TGI,UO-31 renal,40.3 µM
same,TGI,OVCAR-4 ovarian,> 100 µM
same,TGI,SK-MEL-2 melanoma,> 100 µM
same,TGI,ACHN renal,29.6 µM
same,TGI,COLO 205 colon,47 µM
same,TGI,IGROV1 ovarian,56.6 µM
same,TGI,SK-OV-3 ovarian,92 µM
same,TGI,SK-MEL-5 melanoma,22 µM
same,TGI,NCI/ADR-RES ovarian,> 100 µM
same,TGI,HS 578T breast,> 100 µM
same,TGI,NCI-H460 lung,30.5 µM
same,TGI,K-562 leukemia,> 100 µM
same,TGI,A549 NSCLC,90.6 µM
same,TGI,NCI-H23 lung,59.5 µM
same,TGI,TK-10 renal,> 100 µM
same,TGI,SF-268 CNS,62.5 µM
same,TGI,SNB-75 CNS,> 100 µM
same,TGI,SF-295 CNS,55 µM
same,TGI,T-47D breast,> 100 µM
same,TGI,NCI-H226 lung,52.2 µM
same,TGI,M14 melanoma,> 100 µM
same,TGI,PC-3 prostate,78.8 µM
same,TGI,HOP-62 NSCLC,52.5 µM
same,TGI,NCI-H522 lung,34.4 µM
same,TGI,OVCAR-5 ovarian,> 100 µM
same,TGI,MCF7 breast,> 100 µM
same,TGI,MDA-MB-435,8.95 µM
same,TGI,786-0 renal,48.4 µM
same,TGI,SK-MEL-28 melanoma,> 100 µM
same,TGI,MOLT-4 leukemia,> 100 µM
same,TGI,HCT-15 colon,> 100 µM
same,TGI,SW-620 colon,36.6 µM
same,TGI,CCRF-CEM leukemia,> 100 µM
same,TGI,OVCAR-8 ovarian,38.8 µM
same,TGI,UACC-257 melanoma,> 100 µM
same,TGI,SN12C renal,> 100 µM
same,TGI,U251 CNS,34.2 µM
same,TGI,UACC-62 melanoma,25.1 µM
same,TGI,KM12 colon,39.3 µM
same,TGI,BT-549 breast,> 100 µM
same,TGI,DU-145 prostate,87.7 µM
same,TGI,CAKI-1 renal,91.7 µM
same,TGI,A498 renal,86.9 µM
same,TGI,LOX IMVI melanoma,> 100 µM
O=C1OCC2=C1C(c1cccc(F)c1)c1cc3c(cc1N2CCO)OCO3 (centres undefined),GI50,SNB-19 CNS,3 µM
same,TGI,SNB-19 CNS,> 50 µM
same,GI50,HT29 colon,1.52 µM
same,TGI,HT29 colon,> 50 µM
same,GI50,SF-539 CNS,1.13 µM
same,TGI,SF-539 CNS,3.61 µM
same,GI50,HCC-2998 colon,7.06 µM
same,TGI,HCC-2998 colon,> 50 µM
same,GI50,RPMI-8226 leukemia,2.28 µM
same,TGI,RPMI-8226 leukemia,> 50 µM
same,GI50,EKVX NSCLC,3.03 µM
same,TGI,EKVX NSCLC,> 50 µM
same,GI50,OVCAR-3 ovarian,1.27 µM
same,TGI,OVCAR-3 ovarian,> 50 µM
same,GI50,RXF 393 renal,1.51 µM
same,TGI,RXF 393 renal,4.96 µM
same,GI50,UO-31 renal,2.88 µM
same,TGI,UO-31 renal,> 50 µM
same,GI50,OVCAR-4 ovarian,46.8 µM
same,TGI,OVCAR-4 ovarian,> 50 µM
same,GI50,SK-MEL-2 melanoma,2.46 µM
same,TGI,SK-MEL-2 melanoma,> 50 µM
same,GI50,ACHN renal,3.03 µM
same,TGI,ACHN renal,> 50 µM
same,GI50,COLO 205 colon,1.48 µM
same,TGI,COLO 205 colon,15.1 µM
same,GI50,IGROV1 ovarian,4.19 µM
same,TGI,IGROV1 ovarian,> 50 µM
same,GI50,SK-OV-3 ovarian,1.73 µM
same,TGI,SK-OV-3 ovarian,> 50 µM
same,GI50,SK-MEL-5 melanoma,1.26 µM
same,TGI,SK-MEL-5 melanoma,> 50 µM
same,GI50,NCI/ADR-RES ovarian,2.02 µM
same,TGI,NCI/ADR-RES ovarian,> 50 µM
same,GI50,HOP-92 NSCLC,3.1 µM
same,TGI,HOP-92 NSCLC,> 50 µM
same,GI50,HS 578T breast,1.42 µM
same,TGI,HS 578T breast,> 50 µM
same,GI50,NCI-H460 lung,2.08 µM
same,TGI,NCI-H460 lung,> 50 µM
same,GI50,K-562 leukemia,0.353 µM
same,TGI,K-562 leukemia,> 50 µM
same,GI50,A549 NSCLC,8.74 µM
same,TGI,A549 NSCLC,> 50 µM
same,GI50,MDA-MB-231 breast,3.09 µM
same,TGI,MDA-MB-231 breast,> 50 µM
same,GI50,NCI-H23 lung,3.96 µM
same,TGI,NCI-H23 lung,> 50 µM
same,GI50,TK-10 renal,15.6 µM
same,TGI,TK-10 renal,> 50 µM
same,GI50,HCT-116 colon,1.53 µM
same,TGI,HCT-116 colon,> 50 µM
same,GI50,SF-268 CNS,3.2 µM
same,TGI,SF-268 CNS,> 50 µM
same,GI50,SNB-75 CNS,0.82 µM
same,TGI,SNB-75 CNS,2.8 µM
same,GI50,SF-295 CNS,1.2 µM
same,TGI,SF-295 CNS,> 50 µM
same,GI50,T-47D breast,2.18 µM
same,TGI,T-47D breast,> 50 µM
same,GI50,NCI-H226 lung,> 50 µM
same,TGI,NCI-H226 lung,> 50 µM
same,GI50,M14 melanoma,0.357 µM
same,TGI,M14 melanoma,> 50 µM
same,GI50,PC-3 prostate,1.46 µM
same,TGI,PC-3 prostate,> 50 µM
same,GI50,HOP-62 NSCLC,2.19 µM
same,TGI,HOP-62 NSCLC,> 50 µM
same,GI50,NCI-H522 lung,0.259 µM
same,TGI,NCI-H522 lung,29 µM
same,GI50,OVCAR-5 ovarian,4.33 µM
same,TGI,OVCAR-5 ovarian,> 50 µM
same,GI50,MCF7 breast,1.44 µM
same,TGI,MCF7 breast,> 50 µM
same,GI50,MDA-MB-435,0.187 µM
same,TGI,MDA-MB-435,1.57 µM
same,GI50,786-0 renal,1.86 µM
same,TGI,786-0 renal,> 50 µM
same,GI50,SK-MEL-28 melanoma,20.3 µM
same,TGI,SK-MEL-28 melanoma,> 50 µM
same,GI50,MOLT-4 leukemia,3.02 µM
same,TGI,MOLT-4 leukemia,> 50 µM
same,GI50,HCT-15 colon,1.08 µM
same,TGI,HCT-15 colon,> 50 µM
same,GI50,SW-620 colon,1.65 µM
same,TGI,SW-620 colon,> 50 µM
same,GI50,CCRF-CEM leukemia,2.37 µM
same,TGI,CCRF-CEM leukemia,> 50 µM
same,GI50,OVCAR-8 ovarian,3.18 µM
same,TGI,OVCAR-8 ovarian,> 50 µM
same,GI50,UACC-257 melanoma,> 50 µM
same,TGI,UACC-257 melanoma,> 50 µM
same,GI50,SN12C renal,3.05 µM
same,TGI,SN12C renal,> 50 µM
same,GI50,U251 CNS,2.5 µM
same,TGI,U251 CNS,> 50 µM
same,GI50,UACC-62 melanoma,2.25 µM
same,TGI,UACC-62 melanoma,> 50 µM
same,GI50,KM12 colon,1.48 µM
same,TGI,KM12 colon,> 50 µM
same,GI50,BT-549 breast,1.46 µM
same,TGI,BT-549 breast,> 50 µM
same,GI50,DU-145 prostate,2.71 µM
same,TGI,DU-145 prostate,> 50 µM
same,GI50,CAKI-1 renal,1.24 µM
same,TGI,CAKI-1 renal,> 50 µM
same,GI50,SR leukemia,0.294 µM
same,TGI,SR leukemia,> 50 µM
same,GI50,A498 renal,1.11 µM
same,TGI,A498 renal,4.87 µM
same,GI50,LOX IMVI melanoma,2.35 µM
same,TGI,LOX IMVI melanoma,> 50 µM
